Data taken from US20070117743A1, “New antitumoral compounds” (priority 2003, published 2007).
Where two headings read alike, the source gives them in different places. Where a SMILES comes first, the peptide text is derived from it. Bridges are numbered along the chain shown (N, C = ends). [ ]: non-standard residue; d: D form. The star is where a group is joined. d(aIle) = CC[C@H](C)[C@@H](N)C(=O)O; d(aThr) = C[C@@H](O)[C@@H](N)C(=O)O; Hexanoyl(5-Me) = CC(C)CCCC(=O)*; Orn = NCCC[C@H](N)C(=O)O; Dhb = C/C=C(\N)C(=O)O

Key:
Type in all cases: cell-based, human
[1] = system: A-549; assay: SRB colorimetric assay of cell growth and viability, A-549; settings: 48 hours exposure
[2] = system: HT-29; assay: SRB colorimetric assay of cell growth and viability, HT-29; settings: 48 hours exposure
[3] = system: MB-231; assay: SRB colorimetric assay of cell growth and viability, MB-231; settings: MB-231 cells, 48 hours exposure
From the text: (§1) The finality of this assay is to interrupt the growth of a “in vitro” tumor cell culture by means a continued exhibition of the cells to the sample to be testing.
(§2) A colorimetric type of assay, using sulforhodamine B (SRB) reaction has been adapted for a quantitative measurement of cell growth and viability [following the technique described by Philip Skehan, et al. (1990), New colorimetric cytotoxicity assay for anticancer drug screening, J. Natl. Cancer Inst., 82:1107-1112].
(§3) This form of the assay employs 96 well cell culture microplates of 9 mm diameter (Faircloth, 1988; Mosmann, 1983). Most of the cell lines are obtained from American Type Culture Collection (ATCC) derived from different human cancer types.
(§4) Cells are maintained in RPMI 1640 10% FBS, supplemented with 0.1 g/l penicillin and 0.1 g/l streptomycin sulfate and then incubated at 37° C., 5% CO2 and 98% humidity. For the experiments, cells were harvested from subconfluent cultures using trypsin and resuspended in fresh medium before plating.
(§5) Cells are seeded in 96 well microtiter plates, at 5×10^3 cells per well in aliquots of 195 μL medium, and they are allowed to attach to the plate surface by growing in drug free medium for 18 hours. Afterward, samples are added in aliquots of 5 μL in a ranging from 10 to 10^−8 μg/mL, dissolved in DMSO:EtOH:PBS (0.5:0.5:99). After 48 hours exposure, the antitumor effect are measured by the SRB methodology: cells are fixed by adding 50 μL of cold 50% (wt/vol) trichloroacetic acid (TCA) and incubating for 60 minutes at 4° C. Plates are washed with deionized water and dried. One hundred μL of SRB solution (0.4% wt/vol in 1% acetic acid) is added to each microtiter well and incubated for 10 minutes at room temperature. Unbound SRB is removed by washing with 1% acetic acid. Plates are air dried and bound stain is solubilized with Tris buffer. Optical densities are read on a automated spectrophotometric plate reader at a single wavelength of 490 nm.
(§6) The values for mean+/− SD of data from triplicate wells are calculated. Some parameters for cellular responses can be calculated: GI=growth inhibition, TGI=total growth inhibition (cytostatic effect) and LC=cell killing (cytotoxic effect).

[4] = system: K-562; assay: SRB colorimetric assay of cell growth and viability, K-562; settings: 48 hours exposure
[5] = system: PANC-1; assay: SRB colorimetric assay of cell growth and viability, PANC-1; settings: 48 hours exposure
[6] = system: DU-145; assay: SRB colorimetric assay of cell growth and viability, DU-145; settings: 48 hours exposure
[7] = system: IGROV-ET; assay: SRB colorimetric assay of cell growth and viability, IGROV-ET; settings: 48 hours exposure
[8] = system: SK-MEL-28; assay: SRB colorimetric assay of cell growth and viability, SK-MEL-28; settings: 48 hours exposure
[9] = system: LNCaP; assay: SRB colorimetric assay of cell growth and viability, LNCaP; settings: 48 hours exposure
[10] = system: IGROV-1; assay: SRB colorimetric assay of cell growth and viability, IGROV-1; settings: 48 hours exposure
[11] = system: LoVo-Dox; assay: SRB colorimetric assay of cell growth and viability, LoVo-Dox; settings: 48 hours exposure
Procedure, shortened: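 Tumor cells are continuously exposed to sample for 48 hours, with vehicle DMSO:EtOH:PBS (0.5:0.5:99), after an 18-hour drug-free attachment period. Bound SRB, measured at 490 nm, reflects cell mass; GI, TGI and LC are derived from triplicate means.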

[12] = system: SK-OV-3; assay: SRB colorimetric assay of cell growth and viability, SK-OV-3; settings: 48 hours exposure
From the text: as §1, §2, §3, §4, §5, §6

[13] = system: LoVo; assay: SRB colorimetric assay of cell growth and viability, LoVo; settings: 48 hours exposure
[14] = read-out: GI50 (growth inhibition at 50%), A-549 cells, SRB
[15] = read-out: LC50 (lethal concentration at 50%), A-549 cells, SRB
[16] = read-out: GI50 (growth inhibition at 50%), HT-29 cells, SRB
[17] = read-out: LC50 (lethal concentration at 50%), HT-29 cells, SRB

C/C=C1\NC(=O)[C@H](Cc2ccccc2)NC(=O)[C@@H](C(C)C)NC(=O)[C@@H]([C@@H](C)CC)NC(=O)[C@H](NC(=O)[C@@H](CS)NC(=O)[C@H](CCCN)NC(=O)[C@H]2CCCN2C(=O)[C@H](NC(=O)[C@H](CS)NC(=O)[C@@H](NC(=O)[C@H](NC(=O)CCCC(C)C)C(C)C)[C@@H](C)O)C(C)C)[C@@H](C)OC(=O)[C@H](C(C)C)NC1=O [Compound 107, [D-Cys^7, L-Cys^11]-KF] ({Hexanoyl(5-Me)}-[dV]TC[dV][dP][Orn][dC][d(aThr)][d(aIle)][dV]F[Dhb]V; ester 8-C)
TGI (total growth inhibition) ([1]; A-549 cells, SRB): 6.80E−06 Molar
GI50 [1, 14]: 6800 nM
CC50 [1, 15]: 6800 nM
TGI (total growth inhibition) ([2]; HT-29 cells, SRB): 6.80E−06 Molar
GI50 [2, 16]: 6800 nM
CC50 [2, 17]: 6800 nM
TGI (total growth inhibition) [3]: 6.80E−06 Molar

C/C=C1\NC(=O)[C@H](Cc2ccccc2)NC(=O)[C@@H](C(C)C)NC(=O)[C@@H]([C@@H](C)CC)NC(=O)[C@H](NC(=O)[C@H](NC(=O)[C@H](CCCN)NC(=O)[C@H]2CCCN2C(=O)[C@H](NC(=O)[C@@H](NC(=O)[C@@H](NC(=O)[C@H](NC(=O)[C@]23CCC(C)(C)C[C@H]2C2=CC[C@@H]4[C@@]5(C)CC[C@H](O)C(C)(C)[C@@H]5CC[C@@]4(C)[C@]2(C)CC3)C(C)C)[C@@H](C)O)C(C)C)C(C)C)[C@@H](C)CC)[C@@H](C)OC(=O)[C@H](C(C)C)NC1=O [Compound 102, [AO^14]-KF]
TGI (total growth inhibition) ([1]; A-549 cells, SRB): 5.54E−06 Molar
GI50 [1, 14]: 4530 nM
CC50 [1, 15]: 5540 nM
TGI (total growth inhibition) ([2]; HT-29 cells, SRB): 5.54E−06 Molar
GI50 [2, 16]: 5540 nM
CC50 [2, 17]: 5540 nM
TGI (total growth inhibition) [3]: 5.54E−06 Molar

C/C=C1\NC(=O)[C@H](Cc2ccccc2)NC(=O)[C@@H](C(C)C)NC(=O)[C@@H]([C@@H](C)CC)NC(=O)[C@H](NC(=O)[C@@H](CS)NC(=O)[C@H](CCCN)NC(=O)[C@H]2CCCN2C(=O)[C@@H](CS)NC(=O)[C@@H](NC(=O)[C@@H](NC(=O)[C@H](NC(=O)CCCC(C)C)C(C)C)[C@@H](C)O)C(C)C)[C@@H](C)OC(=O)[C@H](C(C)C)NC1=O [Compound 108, [D-Cys^7, D-Cys^10]-KF] ({Hexanoyl(5-Me)}-[dV]TV[dC][dP][Orn][dC][d(aThr)][d(aIle)][dV]F[Dhb]V; ester 8-C)
TGI (total growth inhibition) ([1]; A-549 cells, SRB): 6.53E−06. Molar
GI50 [1, 14]: 6530 nM
CC50 [1, 15]: 6530 nM
TGI (total growth inhibition) ([2]; HT-29 cells, SRB): 6.53E−06. Molar
GI50 [2, 16]: 6530 nM
CC50 [2, 17]: 6530 nM
TGI (total growth inhibition) [3]: 6.53E−06. Molar

C/C=C1\NC(=O)[C@H](Cc2ccccc2)NC(=O)[C@@H](C(C)C)NC(=O)[C@@H]([C@@H](C)CC)NC(=O)[C@H](NC(=O)[C@H](NC(=O)[C@H](CCCN)NC(=O)[C@H]2CCCN2C(=O)[C@H](NC(=O)[C@@H](NC(=O)[C@@H](NC(=O)[C@H](NC(=O)Cc2ccc(C(F)(F)F)cc2)C(C)C)[C@@H](C)O)C(C)C)C(C)C)[C@@H](C)CC)[C@@H](C)OC(=O)[C@H](C(C)C)NC1=O [Compound 25, [p-CF3PhAc^14]-KF]
GI50 [4]: 1420 nM
TGI K-562 [4]: 3.06E−06 Molar
CC50 ([4]; read-out: LC50 K-562): 6440 nM
GI50 [5]: 1580 nM
TGI PANC-1 [5]: 3.07E−06 Molar
CC50 ([5]; read-out: LC50 PANC-1): 5960 nM
TGI A-549 [1]: 9.67E−07 Molar
GI50 ([1]; read-out: GI50 A-549): 297 nM
CC50 ([1]; read-out: LC50 A-549): 3240 nM
GI50 [6]: 251 nM
LC50 (concentration causing 50% net cell kill) [6]: 2380 nM
TGI DU-145 [6]: 7.86E−07 Molar
GI50 [7]: 200 nM
TGI IGROV-ET [7]: 3.23E−07 Molar
CC50 ([7]; read-out: LC50 IGROV-ET): 521 nM
GI50 [8]: 1400 nM
TGI MEL-28 [8]: 2.14E−05 Molar
CC50 ([8]; read-out: LC50 MEL-28): 4060 nM
TGI HT-29 [2]: 1.41E−06 Molar
GI50 ([2]; read-out: GI50 HT-29): 555 nM
CC50 ([2]; read-out: LC50 HT-29): 3320 nM
TGI LN-caP [9]: 1.19E−06 Molar
GI50 ([9]; read-out: GI50 LN-caP): 320 nM
CC50 ([9]; read-out: LC50 LN-caP): 3660 nM
GI50 [10]: 252 nM
LC50 (concentration causing 50% net cell killing) [10]: 1960 nM
TGI IGROV [10]: 4.54E−07 Molar
GI50 [11]: 176 nM
TGI LOVO-DOX [11]: 3.92E−07 Molar
CC50 ([11]; read-out: LC50 LOVO-DOX): 1430 nM
TGI SKOV-3 [12]: 3.29E−07 Molar
GI50 ([12]; read-out: GI50 SKOV-3): 126 nM
CC50 ([12]; read-out: LC50 SKOV-3): 1130 nM
GI50 [13]: 203 nM
TGI LOVO [13]: 4.59E−07 Molar
CC50 ([13]; read-out: LC50 LOVO): 1610 nM
